Measurements: PubChem BioAssay (NCI)
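Cells were grown in 96-well plates and exposed to each compound for 48 hours at five concentrations; endpoints were interpolated linearly between bracketing concentrations, or set to the highest concentration if not reached. TGI marks complete inhibition of growth.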

What was measured:
Assay in all cases: NCI anticancer screen, dose series, 48 h
SK-MEL-2 melanoma = system: SK-MEL-2 melanoma
OVCAR-4 ovarian = system: OVCAR-4 ovarian
SF-295 CNS = system: SF-295 CNS
HCT-15 colon = system: HCT-15 colon
PC-3 prostate = system: PC-3 prostate
SK-OV-3 ovarian = system: SK-OV-3 ovarian
CCRF-CEM leukemia = system: CCRF-CEM leukemia
SN12C renal = system: SN12C renal
UACC-257 melanoma = system: UACC-257 melanoma
COLO 205 colon = system: COLO 205 colon
DU-145 prostate = system: DU-145 prostate
MDA-MB-435 = system: MDA-MB-435
IGROV1 ovarian = system: IGROV1 ovarian
SK-MEL-28 melanoma = system: SK-MEL-28 melanoma
NCI-H460 lung = system: NCI-H460 lung
RXF 393 renal = system: RXF 393 renal
KM12 colon = system: KM12 colon
OVCAR-5 ovarian = system: OVCAR-5 ovarian
EKVX NSCLC = system: EKVX NSCLC
SNB-75 CNS = system: SNB-75 CNS
786-0 renal = system: 786-0 renal
HCC-2998 colon = system: HCC-2998 colon
CAKI-1 renal = system: CAKI-1 renal
SK-MEL-5 melanoma = system: SK-MEL-5 melanoma
SW-620 colon = system: SW-620 colon
TK-10 renal = system: TK-10 renal
ACHN renal = system: ACHN renal
SF-539 CNS = system: SF-539 CNS
MDA-MB-231 breast = system: MDA-MB-231 breast
M14 melanoma = system: M14 melanoma
NCI-H23 lung = system: NCI-H23 lung
HCT-116 colon = system: HCT-116 colon
HT29 colon = system: HT29 colon
HL-60(TB) leukemia = system: HL-60(TB) leukemia
OVCAR-8 ovarian = system: OVCAR-8 ovarian
T-47D breast = system: T-47D breast
NCI-H522 lung = system: NCI-H522 lung
MALME-3M melanoma = system: MALME-3M melanoma
HS 578T breast = system: HS 578T breast
UACC-62 melanoma = system: UACC-62 melanoma
LOX IMVI melanoma = system: LOX IMVI melanoma
A498 renal = system: A498 renal
SNB-19 CNS = system: SNB-19 CNS
SF-268 CNS = system: SF-268 CNS
MDA-N = system: MDA-N
HOP-62 NSCLC = system: HOP-62 NSCLC
U251 CNS = system: U251 CNS
BT-549 breast = system: BT-549 breast
A549 NSCLC = system: A549 NSCLC
HOP-92 NSCLC = system: HOP-92 NSCLC
RPMI-8226 leukemia = system: RPMI-8226 leukemia
OVCAR-3 ovarian = system: OVCAR-3 ovarian
NCI-H226 lung = system: NCI-H226 lung
NCI/ADR-RES ovarian = system: NCI/ADR-RES ovarian

Work on `O=C1C=CC(=O)c2c(O)c(N[C@@H](Cc3ccccc3)C(=O)OCc3ccccc3)c(Cl)c(O)c21` yielded a TGI (SK-MEL-2 melanoma) of over 10 µM, a TGI (OVCAR-4 ovarian) of over 10 µM and a TGI (SF-295 CNS) of over 10 µM. For the same compound, the TGI (HCT-15 colon) was over 10 µM, the TGI (PC-3 prostate) was over 10 µM and the TGI (SK-OV-3 ovarian) was over 10 µM. The TGI (CCRF-CEM leukemia) was over 10 µM, the TGI (SN12C renal) was over 10 µM and the TGI (UACC-257 melanoma) was over 10 µM. For the same compound, the TGI (COLO 205 colon) was 6.71 µM, the TGI (DU-145 prostate) was over 10 µM and the TGI (MDA-MB-435) was over 10 µM. It also gave a TGI (IGROV1 ovarian) of over 10 µM, a TGI (SK-MEL-28 melanoma) of over 10 µM and a TGI (NCI-H460 lung) of over 10 µM. It also gave a TGI (RXF 393 renal) of over 10 µM, a TGI (KM12 colon) of over 10 µM and a TGI (OVCAR-5 ovarian) of over 10 µM. For the same compound, the TGI (EKVX NSCLC) was over 10 µM, the TGI (SNB-75 CNS) was over 10 µM and the TGI (786-0 renal) was over 10 µM. For the same compound, the TGI (HCC-2998 colon) was over 10 µM, the TGI (CAKI-1 renal) was over 10 µM and the TGI (SK-MEL-5 melanoma) was 8.18 µM. For the same compound, the TGI (SW-620 colon) was over 10 µM, the TGI (TK-10 renal) was over 10 µM and the TGI (ACHN renal) was over 10 µM. It also gave a TGI (SF-539 CNS) of 8.86 µM, a TGI (MDA-MB-231 breast) of 8.43 µM and a TGI (M14 melanoma) of over 10 µM. The TGI (NCI-H23 lung) was over 10 µM, the TGI (HCT-116 colon) was 4.42 µM and the TGI (HT29 colon) was over 10 µM. It also gave a TGI (HL-60(TB) leukemia) of over 10 µM, a TGI (OVCAR-8 ovarian) of over 10 µM and a TGI (T-47D breast) of over 10 µM. For the same compound, the TGI (NCI-H522 lung) was over 10 µM, the TGI (MALME-3M melanoma) was over 10 µM and the TGI (HS 578T breast) was over 10 µM. It also gave a TGI (UACC-62 melanoma) of over 10 µM, a TGI (LOX IMVI melanoma) of 7.11 µM and a TGI (A498 renal) of over 10 µM. The TGI (SNB-19 CNS) was over 10 µM, the TGI (SF-268 CNS) was over 10 µM and the TGI (MDA-N) was over 10 µM. It also gave a TGI (HOP-62 NSCLC) of over 10 µM, a TGI (U251 CNS) of over 10 µM and a TGI (BT-549 breast) of over 10 µM. It also gave a TGI (A549 NSCLC) of over 10 µM, a TGI (HOP-92 NSCLC) of over 10 µM and a TGI (RPMI-8226 leukemia) of over 10 µM. It also gave a TGI (OVCAR-3 ovarian) of 7.15 µM, a TGI (NCI-H226 lung) of over 10 µM and a TGI (NCI/ADR-RES ovarian) of 5.62 µM.
